According to US20230310436A1, “COMBINATION THERAPY FOR CANCERS WITH KRAS MUTATION” (COTHERA BIOSCIENCE, INC., priority 2019, published 2023):

Assays:
[1] = system: KRAS^G12A-NSCLC H1573 cell line; test: Ex vivo Edu proliferation test (MI, GI %), H1573; format: cell-based; conditions: Table 1; 4 days; uM: osimertinib 0.5, afatinib 0.2, cobimetinib 0.4, trametinib 0.02, TAK-733 0.18, palbociclib 0.15, ribociclib 5
Method: (§1) For ex vivo drug testing, the cells were exposed to a combination of drugs or single drugs for 4 days or 7 days. Following exposure with drug, 1,000-5,000 cells were labeled with 5-ethynyl-2′-deoxyuridine (Edu) to assess the tumor cell proliferation rates. The labeling lasted 24 hours in the presence of drug exposure. In the control group, epithelial tumor cells received no drug exposure with media change (with 0.1% DMSO), but were similarly labeled with Edu. The labeled cells were fixed and blocked with 3% BSA and 0.5% Triton X-100 for 2 hours at room temperature, followed by staining with Hoechst 33342 and EpCAM antibody (1:4000) in PBS solution containing 0.5% Triton X-100 overnight at 4° C. Subsequently, the cells were rinsed with PBST then incubated with Alexa Fluor® 647 conjugated goat-antimouse secondary antibody for 30 minutes at room temperature.
(§2) The incorporated Edu was detected by Click-iT reaction where fixed cells were incubated with a reaction mixture containing 1× Click-iT Edu reaction buffer, CuSO4, and azide-conjugated Alexa Fluor dye in the dark. The stained cells were washed with PBS two times before image acquisition and analysis.
(§3) For image acquisition and analysis, the stained tumor cells were imaged by a high-content screening (HCS) platform (Thermo Scientific CellomicsArrayScanXTi HCS reader). The 10× objective was used to collect images. Twenty-five fields were imaged for each well for the analysis. From the images three fluorescent signals were obtained from the HCS reader. Blue fluorescent signals recorded nucleus signals stained with Hoechst 33342, green fluorescent signal detected the Edu incorporated in newly synthesized DNA, and red fluorescent signal detected the EpCAM positive epithelial cells population.
The MI (Maximum Inhibition Index) was calculated using the EpCAM and Edu positive readout (Tables 1-4). MI=Edu positive cells in control/Edu positive cells in treatment. MI4 indicates an MI value after 4 days of treatment and MI7 indicates an MI values after 7 days of treatment. […] GI % is calculated as GI %=(1−1/MI)*100%.

[2] = system: KRAS^G12A-NSCLC H2009 cell line; test: Ex vivo Edu proliferation test (MI, GI %), H2009; format: cell-based; conditions: Table 1; 4 days; uM: osimertinib 0.5, afatinib 0.2, cobimetinib 0.4, trametinib 0.02, TAK-733 0.18, palbociclib 0.15, ribociclib 5
Method: as §1, §2, §3
(§4) The MI (Maximum Inhibition Index) was calculated using the EpCAM and Edu positive readout (Tables 1-4). MI=Edu positive cells in control/Edu positive cells in treatment. MI4 indicates an MI value after 4 days of treatment and MI7 indicates an MI values after 7 days of treatment. The MI and growth inhibition rate (GI %) values for KRAS^G12A-NSCLC (H1573 and H2009), KRAS^G12C-NSCLC (H358, H23 and H2030), KRAS^G12V-NSCLC (H2291 and H2444) and KRAS^G12D-NSCLC (H1588 and SK-LU-1) cell lines are shown in Tables 1-4, respectively. GI % is calculated as GI %=(1−1/MI)*100%.

[3] = system: KRAS^G12C-NSCLC H358 cell line; test: Ex vivo Edu proliferation test (MI, GI %), H358; format: cell-based; conditions: Table 2a; 7 days; uM: osimertinib 0.5, afatinib 0.2, cobimetinib 0.4, trametinib 0.02, palbociclib 0.15, ribociclib 5
Method: as §1, §2, §3, §4

[4] = system: KRAS^G12C-NSCLC H23 cell line; test: Ex vivo Edu proliferation test (MI, GI %), H23; format: cell-based; conditions: Table 2a; 7 days; uM: osimertinib 0.5, afatinib 0.2, cobimetinib 0.4, trametinib 0.02, palbociclib 0.15, ribociclib 5
Method: as §1, §2, §3, §4

[5] = system: KRAS^G12C-NSCLC H2030 cell line; test: Ex vivo Edu proliferation test (MI, GI %), H2030; format: cell-based; conditions: Table 2a; 7 days; uM: osimertinib 0.5, afatinib 0.2, cobimetinib 0.4, trametinib 0.02, palbociclib 0.15, ribociclib 5
Method: as §1, §2, §3, §4

[6] = system: KRAS^G12V-NSCLC H2291 cell line; test: Ex vivo Edu proliferation test (MI, GI %), H2291; format: cell-based; conditions: Table 3; 7 days; uM: osimertinib 0.5, afatinib 0.2, trametinib 0.02, TAK-733 0.18, palbociclib 0.15, ribociclib 5
Method: as §1, §2, §3, §4

[7] = system: KRAS^G12V-NSCLC H2444 cell line; test: Ex vivo Edu proliferation test (MI, GI %), H2444; format: cell-based; conditions: Table 3; 4 days; uM: osimertinib 0.5, afatinib 0.2, trametinib 0.02, TAK-733 0.18, palbociclib 0.15, ribociclib 5
Method: as §1, §2, §3, §4

[8] = system: KRAS^G12D-NSCLC H1588 cell line; test: Ex vivo Edu proliferation test (MI, GI %), H1588; format: cell-based; conditions: Table 4; 4 days; uM: osimertinib 0.5, afatinib 0.2, cobimetinib 0.4, trametinib 0.02, TAK-733 0.18, palbociclib 0.15, ribociclib 5
Method: as §1, §2, §3, §4

[9] = system: KRAS^G12D-NSCLC SK-LU-1 cell line; test: Ex vivo Edu proliferation test (MI, GI %), SK-LU-1; format: cell-based; conditions: Table 4; 4 days; uM: osimertinib 0.5, afatinib 0.2, cobimetinib 0.4, trametinib 0.02, TAK-733 0.18, palbociclib 0.15, ribociclib 5
Method: as §1, §2, §3, §4

[10] = system: KRAS^G12C NSCLC CDX model H358; format: in vivo

Structure (SMILES) | GI % (Growth Inhibition Rate), H1573 [1] [%] | MI 4 (Maximum Inhibition Index), H1573 [1] | GI % (Growth Inhibition Rate), H2009 [2] [%] | MI 4 (Maximum Inhibition Index), H2009 [2] | GI % (Growth Inhibition Rate), H358 [3] [%] | MI 7 (Maximum Inhibition Index), H358 [3] | GI % (Growth Inhibition Rate), H23 [4] [%] | MI 7 (Maximum Inhibition Index), H23 [4] | GI % (Growth Inhibition Rate), H2030 [5] [%] | MI 7 (Maximum Inhibition Index), H2030 [5] | GI % (Growth Inhibition Rate), H2291 [6] [%] | MI 7 (Maximum Inhibition Index), H2291 [6] | GI % (Growth Inhibition Rate), H2444 [7] [%] | MI 4 (Maximum Inhibition Index), H2444 [7] | GI % (Growth Inhibition Rate), H1588 [8] [%] | MI 4 (Maximum Inhibition Index), H1588 [8] | GI % (Growth Inhibition Rate), SK-LU-1 [9] [%] | MI 4 (Maximum Inhibition Index), SK-LU-1 [9] | further results
C=CC(=O)Nc1cc(Nc2nccc(-c3cn(C)c4ccccc34)n2)c(OC)cc1N(C)CCN(C)C [Osimertinib, osimertinib] | 67.71 | 3.10 | 35.30 | 1.55 | 22.86 | 1.30 | 13.11 | 0.89 | 57.39 | 2.35 | 21.19 | 1.30 | 66.51 | 2.99 | 55.11 | 2.23 | 35.73 | 1.56 | –
O=C(c1ccc(F)c(F)c1Nc1ccc(I)cc1F)N1CC(O)([C@@H]2CCCCN2)C1 [Cobimetinib, cobimetinib] | 96.36 | 27.49 | 67.99 | 3.12 | 97.48 | 39.68 | 75.83 | 4.25 | 92.44 | 13.21 | – | – | – | – | 48.38 | 1.94 | 64.82 | 2.84 | –
CC(=O)c1c(C)c2cnc(Nc3ccc(N4CCNCC4)cn3)nc2n(C2CCCC2)c1=O [Palbociclib, palbociclib] | 92.17 | 12.77 | 8.82 | 1.10 | 60.31 | 2.53 | 41.73 | 1.72 | 52.39 | 2.10 | 81.25 | 5.36 | 59.59 | 2.47 | 53.52 | 2.15 | 73.45 | 3.77 | –
CN(C)C(=O)c1cc2cnc(Nc3ccc(N4CCNCC4)cn3)nc2n1C1CCCC1 [Ribociclib, ribociclib] | 99.00 | 100.43 | 10.09 | 1.11 | 95.43 | 21.19 | 74.57 | 3.96 | 84.67 | 6.57 | 98.65 | 72.98 | 74.54 | 3.93 | 60.57 | 2.54 | 91.58 | 11.88 | –
CN(C)C/C=C/C(=O)Nc1cc2c(Nc3ccc(F)c(Cl)c3)ncnc2cc1O[C@H]1CCOC1 [Afatinib, afatinib] | 42.36 | 1.73 | 14.83 | 1.17 | 22.84 | 1.30 | 16.09 | 0.87 | 55.33 | 2.23 | 26.00 | 1.35 | 44.30 | 1.80 | 43.02 | 1.75 | 8.65 | 1.09 | –
N.N.[Cl][Pt][Cl] [cisplatin] | – | – | – | – | – | – | – | – | – | – | – | – | – | – | – | – | – | – | Mean Tumor Volume, study day 0 ([10]; Table 11A, day 0, mg/kg: osimertinib 10, cobimetinib 5, TAK-733 10, palbociclib 20 daily p.o., cetuximab 1, cisplatin 4 per week i.p., 21 days, then 7 days off): 164.52 ± 22.82 mm^3; Mean Tumor Volume, study day 3 ([10]; Table 11A, day 3, mg/kg: osimertinib 10, cobimetinib 5, TAK-733 10, palbociclib 20 daily p.o., cetuximab 1, cisplatin 4 per week i.p., 21 days, then 7 days off): 249.59 ± 33.58 mm^3; Mean Tumor Volume, study day 7 ([10]; Table 11A, day 7, mg/kg: osimertinib 10, cobimetinib 5, TAK-733 10, palbociclib 20 daily p.o., cetuximab 1, cisplatin 4 per week i.p., 21 days, then 7 days off): 438.18 ± 93.81 mm^3; Mean Tumor Volume, study day 10 ([10]; Table 11A, day 10, mg/kg: osimertinib 10, cobimetinib 5, TAK-733 10, palbociclib 20 daily p.o., cetuximab 1, cisplatin 4 per week i.p., 21 days, then 7 days off): 489.05 ± 102.01 mm^3; Mean Tumor Volume, study day 14 ([10]; Table 11A, day 14, mg/kg: osimertinib 10, cobimetinib 5, TAK-733 10, palbociclib 20 daily p.o., cetuximab 1, cisplatin 4 per week i.p., 21 days, then 7 days off): 618.71 ± 145.67 mm^3; Mean Tumor Volume, study day 17 ([10]; Table 11A, day 17, mg/kg: osimertinib 10, cobimetinib 5, TAK-733 10, palbociclib 20 daily p.o., cetuximab 1, cisplatin 4 per week i.p., 21 days, then 7 days off): 685.80 ± 180.07 mm^3; Mean Tumor Volume, study day 21 ([10]; Table 11A, day 21, mg/kg: osimertinib 10, cobimetinib 5, TAK-733 10, palbociclib 20 daily p.o., cetuximab 1, cisplatin 4 per week i.p., 21 days, then 7 days off): 828.32 ± 220.11 mm^3; Mean Tumor Volume, study day 24 ([10]; Table 11A, day 24, mg/kg: osimertinib 10, cobimetinib 5, TAK-733 10, palbociclib 20 daily p.o., cetuximab 1, cisplatin 4 per week i.p., 21 days, then 7 days off): 958.50 ± 207.93 mm^3; Mean Tumor Volume, study day 28 ([10]; Table 11A, day 28, mg/kg: osimertinib 10, cobimetinib 5, TAK-733 10, palbociclib 20 daily p.o., cetuximab 1, cisplatin 4 per week i.p., 21 days, then 7 days off): 1079.33 ± 275.10 mm^3; Tumor volume (mm^3) day 0 ([10]; Table 11C, day 0, doses as Table 11A (TAK-733 10 mg/kg)): 164.52 ± 22.82 mm^3; Tumor volume (mm^3) day 28 ([10]; Table 11C, day 28, doses as Table 11A (TAK-733 10 mg/kg)): 1079.33 ± 275.10 mm^3; TGI % ([10]; Table 11C, day 28 vs day 0, doses as Table 11A (TAK-733 10 mg/kg)): −10.2%; tumor growth inhibition, in words ([10]; Tables 11A and 11C, cisplatin at 4 mg/kg): no effect on inhibiting tumor growth
Cn1c(=O)c(F)c(Nc2ccc(I)cc2F)c2c(=O)n(C[C@@H](O)CO)cnc21 [TAK-733] | 89.62 | 9.64 | 62.18 | 2.64 | – | – | – | – | – | – | 98.27 | 57.57 | 99.01 | 100.76 | 36.93 | 1.59 | 77.44 | 4.43 | –
